According to patent EP0411751A1, “Renin inhibitory peptides” (Beecham Group p.l.c., priority 1989, dated 1991):

These compounds were tested against T1, human renin (Homo sapiens, UniProt P00797) (assay: In vitro human renin inhibition (renin activity in human plasma, angiotensin I radioimmunoassay)). Conditions: angiotensin I difference between halves incubated at 37° and 4° for 2 h, linear regression of at least three concentrations, read-out: IC₅₀.
T1 construct: from tissue; host or cells: human plasma from blood of healthy volunteers
T1 sequence (P00797 67-406): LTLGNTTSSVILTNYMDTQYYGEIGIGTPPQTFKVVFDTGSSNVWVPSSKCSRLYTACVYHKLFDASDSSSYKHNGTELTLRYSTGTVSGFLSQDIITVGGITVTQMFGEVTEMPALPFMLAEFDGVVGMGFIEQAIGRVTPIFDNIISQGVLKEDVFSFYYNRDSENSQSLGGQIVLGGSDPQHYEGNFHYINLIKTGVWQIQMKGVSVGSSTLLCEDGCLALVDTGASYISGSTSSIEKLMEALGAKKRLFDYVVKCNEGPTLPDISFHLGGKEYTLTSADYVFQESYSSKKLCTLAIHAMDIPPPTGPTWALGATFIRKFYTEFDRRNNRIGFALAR
Format: biochemical
Procedure: In vitro human renin inhibition
Renin inhibitory activity was estimated as the percentage change in renin activity in human plasma in the presence and absence of compound. The source of plasma was blood taken from healthy volunteers. Renin activity was defined by the difference in angiotensin I levels between two halves of a sample, one incubated at 37^o and the other at 4^o for 2 h. Angiotensin I levels were measured using a ¹²⁵I- angiotensin I radioimmunoassay kit (NEN/DuPont, Stevenage). Results were calculated as the mean of at least two, duplicate determinations and IC₅₀ values were calculated by linear regression analysis of at least three concentrations of compound.

IC50	SMILES
220 nM	Cc1ccc2c(c1)N(CC(=O)N[C@@H](Cc1ccccc1)C(=O)N[C@@H](CC(C)C)C(=O)N[C@@H](CC1CCCCC1)[C@@H](O)CC(=O)NCC(C)C)C(=O)CO2 [Example E2, 2,3-Dihydro-6-methyl-3-oxo-4H-1,4-benzoxazine-4-acetyl-Phe-Leu-ACHPA isobutylamide .H₂O]
25 nM	CC(C)C[C@H](NC(=O)[C@H](Cc1ccccc1)NC(=O)CCN1C(=O)COc2ccc(CN)cc21)C(=O)N[C@@H](CC1CCCCC1)[C@@H](O)CC(=O)NCCCn1ccnc1 [Example E11, 6-(Aminomethyl)-2,3-dihydro-3-oxo-4H-1,4-benzoxazine-4-propanoyl-Phe-Leu-ACHPA 3-(1imidazolyl)propylamide .3CF₃CO₂H]
22 nM	CC(C)C[C@H](NC(=O)[C@H](Cc1ccccc1)NC(=O)CCN1C(=O)CCS(=O)(=O)c2ccccc21)C(=O)N[C@@H](CC1CCCCC1)[C@@H](O)CC(=O)NCCCn1ccnc1 [Example E19, 3,4-Dihydro-1,1,4-trioxo-1,5-benzothiazepine-5(2H)-propanoyl-Phe-Leu-ACHPA 3-(1-imidazolyl)propylamide]
8 nM	CC(C)C[C@H](NC(=O)[C@H](Cc1ccccc1)NC(=O)CCN1C(=O)CCSc2ccccc21)C(=O)N[C@@H](CC1CCCCC1)[C@@H](O)CC(=O)NCCCn1ccnc1 [Example E18, 3,4-Dihydro-4-oxo-1,5-benzothiazepine-5(2H)-propanoyl-Phe-Leu-ACHPA 3-(1-imidazolyl)propylamide.0.5(CHCl₃)]
13 nM	CC(C)CNC(=O)C[C@H](O)[C@H](CC1CCCCC1)NC(=O)[C@H](CC(C)C)NC(=O)[C@H](Cc1ccccc1)NC(=O)CCN1C(=O)CS(=O)(=O)c2ccccc21 [Example E7, 2,3-Dihydro-1,1,3-trioxo-4H-1,4-benzothiazine-4-propanoyl-Phe-Leu-ACHPA isobutylamide .0.5H₂O]
47 nM	CC(C)CNC(=O)C[C@H](O)[C@H](CC1CCCCC1)NC(=O)[C@H](CC(C)C)NC(=O)[C@H](Cc1ccccc1)NC(=O)CC1CCOc2ccccc21 (stereo partly drawn) [Example E1, Chromanyl-4-acetyl-Phe-Leu-ACHPA isobutylamide .0.5H₂O]
42 nM	CC(C)C[C@H](NC(=O)[C@H](Cc1ccccc1)NC(=O)CCN1C(=O)COc2ccc(C(=O)O)cc21)C(=O)N[C@@H](CC1CCCCC1)[C@@H](O)CC(=O)NCCCn1ccnc1 [Example E15, 6-Carboxy-2,3-dihydro-3-oxo-4H-1,4-benzoxazine-4-propanoyl-Phe-Leu-ACHPA 3-(1-imidazolyl)propylamide]
